Measurements: PubChem BioAssay (NCI)
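Dose response: 5 concentrations. Exposure: 48 h. Format: 96-well plates. Endpoint: linear interpolation; highest concentration if not reached. At the TGI there is no net growth.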

How the values were obtained:
Assay in all cases: NCI-60 cell line screen, 48 h
[1] = system: RPMI-8226 leukemia
[2] = system: ACHN renal
[3] = system: OVCAR-3 ovarian
[4] = system: OVCAR-4 ovarian
[5] = system: MDA-MB-435
[6] = system: NCI-H23 lung
[7] = system: PC-3 prostate
[8] = system: SW-620 colon
[9] = system: COLO 205 colon
[10] = system: NCI-H460 lung
[11] = system: CAKI-1 renal
[12] = system: SF-268 CNS
[13] = system: MALME-3M melanoma
[14] = system: NCI-H226 lung
[15] = system: MDA-N
[16] = system: SK-MEL-28 melanoma
[17] = system: A549 NSCLC
[18] = system: BT-549 breast
[19] = system: OVCAR-8 ovarian
[20] = system: U251 CNS
[21] = system: HCT-116 colon
[22] = system: MDA-MB-231 breast
[23] = system: SF-539 CNS
[24] = system: KM12 colon
[25] = system: HOP-62 NSCLC
[26] = system: MOLT-4 leukemia
[27] = system: M14 melanoma
[28] = system: SR leukemia
[29] = system: SK-MEL-5 melanoma
[30] = system: IGROV1 ovarian
[31] = system: HT29 colon
[32] = system: HCT-15 colon
[33] = system: HCC-2998 colon
[34] = system: CCRF-CEM leukemia
[35] = system: TK-10 renal
[36] = system: K-562 leukemia
[37] = system: UACC-257 melanoma
[38] = system: SNB-75 CNS
[39] = system: SF-295 CNS
[40] = system: UACC-62 melanoma
[41] = system: LOX IMVI melanoma
[42] = system: 786-0 renal
[43] = system: NCI-H522 lung
[44] = system: HS 578T breast
[45] = system: SK-OV-3 ovarian
[46] = system: UO-31 renal
[47] = system: EKVX NSCLC
[48] = system: SK-MEL-2 melanoma
[49] = system: SNB-19 CNS
[50] = system: SN12C renal
[51] = system: OVCAR-5 ovarian
[52] = system: NCI/ADR-RES ovarian
[53] = system: RXF 393 renal
[54] = system: MCF7 breast
[55] = system: A498 renal
[56] = system: DU-145 prostate
[57] = system: HL-60(TB) leukemia

Q: What does the source list for `NC(Cc1ccc(B(O)O)cc1)C(=O)NC(CO)CO` (stereo unspecified)?
A: TGI [1]: > 100 µM; TGI [2]: > 100 µM; TGI [3]: > 100 µM; TGI [4]: > 100 µM; TGI [5]: > 100 µM; TGI [6]: > 100 µM; TGI [7]: > 100 µM; TGI [8]: > 100 µM; TGI [9]: > 100 µM; TGI [10]: > 100 µM; TGI [11]: > 100 µM; TGI [12]: > 100 µM; TGI [13]: > 100 µM; TGI [14]: > 100 µM; TGI [15]: > 100 µM; TGI [16]: > 100 µM; TGI [17]: > 100 µM; TGI [18]: > 100 µM; TGI [19]: > 100 µM; TGI [20]: > 100 µM; TGI [21]: > 100 µM; TGI [22]: > 100 µM; TGI [23]: > 100 µM; TGI [24]: > 100 µM; TGI [25]: > 100 µM; TGI [26]: > 100 µM; TGI [27]: > 100 µM; TGI [28]: > 100 µM; TGI [29]: > 100 µM; TGI [30]: > 100 µM; TGI [31]: > 100 µM; TGI [32]: > 100 µM; TGI [33]: > 100 µM; TGI [34]: > 100 µM; TGI [35]: > 100 µM; TGI [36]: > 100 µM; TGI [37]: > 100 µM; TGI [38]: > 100 µM; TGI [39]: > 100 µM; TGI [40]: > 100 µM; TGI [41]: > 100 µM; TGI [42]: > 100 µM; TGI [43]: > 100 µM; TGI [44]: > 100 µM; TGI [45]: > 100 µM; TGI [46]: > 100 µM; TGI [47]: > 100 µM; TGI [48]: > 100 µM; TGI [49]: > 100 µM; TGI [50]: > 100 µM; TGI [51]: > 100 µM; TGI [52]: > 100 µM; TGI [53]: > 100 µM

Q: `CC(C)[C@@H](C)[C@@]1(C)C[C@@H]1[C@@H](C)[C@H]1CC[C@@H]([C@@H]2CC=C3C[C@@H](O)CC[C@]3(C)C2=O)[C@]1(C)CCO` was tested. Which TGI [1] did it give?
A: Its TGI is 52 µM.

Q: And the TGI [2]?
A: The TGI was 25 µM.

Q: And the TGI [3]?
A: The TGI was 25.6 µM.

Q: What about the TGI [4] of the same compound?
A: The TGI was 24.8 µM.

Q: And the TGI [5]?
A: Its TGI is 24.3 µM.

Q: And the TGI [6]?
A: Its TGI is 27.2 µM.

Q: And the TGI [7]?
A: Its TGI is 21.8 µM.

Q: What about the TGI [8] of the same compound?
A: The TGI was 20.1 µM.

Q: What about the TGI [9] of the same compound?
A: Its TGI is 24.3 µM.

Q: And the TGI [10]?
A: Its TGI is 3.32 µM.

Q: What about the TGI [11] of the same compound?
A: Its TGI is 25.4 µM.

Q: And the TGI [12]?
A: The TGI was 30.3 µM.

Q: And the TGI [13]?
A: Its TGI is 27.4 µM.

Q: What about the TGI [14] of the same compound?
A: The TGI was 26.8 µM.

Q: And the TGI [15]?
A: The TGI was 26.1 µM.

Q: And the TGI [16]?
A: Its TGI is 20.1 µM.

Q: And the TGI [18]?
A: Its TGI is 30.3 µM.

Q: And the TGI [19]?
A: Its TGI is 25.5 µM.

Q: And the TGI [20]?
A: Its TGI is 23 µM.

Q: And the TGI [21]?
A: The TGI was 21.6 µM.

Q: And the TGI [54]?
A: Its TGI is 22.8 µM.

Q: What about the TGI [22] of the same compound?
A: Its TGI is 28 µM.

Q: And the TGI [55]?
A: Its TGI is 28.7 µM.

Q: And the TGI [23]?
A: Its TGI is 25.3 µM.

Q: And the TGI [24]?
A: Its TGI is 13 µM.

Q: And the TGI [25]?
A: The TGI was 31.2 µM.

Q: And the TGI [26]?
A: The TGI was 19.3 µM.

Q: And the TGI [28]?
A: Its TGI is 13.3 µM.

Q: And the TGI [29]?
A: The TGI was 26.4 µM.

Q: What about the TGI [30] of the same compound?
A: The TGI was 29.8 µM.

Q: And the TGI [31]?
A: Its TGI is 7.39 µM.

Q: What about the TGI [32] of the same compound?
A: Its TGI is 17.4 µM.

Q: And the TGI [33]?
A: Its TGI is 16.4 µM.

Q: And the TGI [35]?
A: Its TGI is 23.6 µM.

Q: What about the TGI [36] of the same compound?
A: Its TGI is 18 µM.

Q: And the TGI [37]?
A: Its TGI is 27.4 µM.

Q: And the TGI [56]?
A: The TGI was 28.7 µM.

Q: And the TGI [38]?
A: The TGI was 17.9 µM.

Q: And the TGI [39]?
A: Its TGI is 21.2 µM.

Q: And the TGI [40]?
A: Its TGI is 27.7 µM.

Q: What about the TGI [41] of the same compound?
A: Its TGI is 15.4 µM.

Q: And the TGI [42]?
A: Its TGI is 17.2 µM.

Q: And the TGI [43]?
A: The TGI was 19.8 µM.

Q: And the TGI [44]?
A: Its TGI is 25.2 µM.

Q: What about the TGI [46] of the same compound?
A: Its TGI is 28.5 µM.

Q: And the TGI [57]?
A: The TGI was 5.2 µM.

Q: What about the TGI [47] of the same compound?
A: Its TGI is 26 µM.

Q: What about the TGI [48] of the same compound?
A: Its TGI is 33.3 µM.

Q: What about the TGI [49] of the same compound?
A: Its TGI is 25.1 µM.

Q: What about the TGI [50] of the same compound?
A: The TGI was 25.5 µM.

Q: And the TGI [51]?
A: The TGI was 23.8 µM.

Q: What about the TGI [52] of the same compound?
A: The TGI was 26.6 µM.

Q: What about the TGI [53] of the same compound?
A: The TGI was 11.5 µM.
